The values that follow come from publication PMC8145107 (Pharmaceutics, 2021).

Series [1] has as its system L929: NCTC clone 929, mouse fibroblast cell line. Put plainly: Cytotoxicity in normal mammalian cells (L929). Type of series: cell-based. To be noted: L929, 24 h, 0.01-100 μM, read-out: IC50 of compounds in various normal mammalian cells.
A further series deals with CYP450 2C19 (Homo sapiens, UniProt P33261). Put plainly: CYP450 enzyme inhibition, 2C19. As to conditions: compound 0.05~50 μM; read-out: IC50 against CYP450 isotype 2C19. Type of series: in vitro ADME.
The test system of series [2] is NIH 3T3: mouse embryonic fibroblast cell line. Put plainly: Cytotoxicity in normal mammalian cells (NIH 3T3). Format: cell-based. As to conditions: NIH3T3, 24 h, 0.01-100 μM, read-out: IC50 of compounds in various normal mammalian cells.
The nature of series [3]: Liver microsomal phase I stability assay (mouse). Format: in vitro ADME. To be noted: mouse liver microsomes. (Microsomes from liver hold many membrane-bound enzymes, among them those of drug oxidation.)
The nature of series [4]: Liver microsomal phase I stability assay (rat). Format: in vitro ADME. To be noted: rat liver microsomes.
The subject of another series is normal mammalian cells. Put plainly: Cytotoxicity, range over the normal mammalian cell panel. As to conditions: HFL-1, L929, NIH3T3, CHO-K1, VERO; 24 h; read-out: IC50 values, range over the normal cell lines. Format: cell-based.
A short description of series [5]: Pharmacokinetic study after IV injection in rats. Format: in vivo. As to conditions: male, Sprague-Dawley, plasma, rat. An excerpt: Male Sprague–Dawley rats (7-week-old) and male Institute of Cancer Research (ICR) mice (5-week-old) were purchased from Orient Bio (Seongnam, Korea) and Samtako Bio (Osan, Korea), respectively. The experimental animals were housed under conventional conditions and fasted overnight before surgery for catheterization. All procedures for animal experiments were in accordance with the guidelines by the Ewha Woman’s University Institutional Animal Care and Use Committee (IACUC, 15-049 and 16-062), Korea.
The HPLC system used for this study was an Agilent HP1100 equipped with a quaternary pump with degasser, a variable wavelength detector, a thermostatted auto-sampler, and an HPLC 2D Agilent ChemStation software. A capcell-pak C18 MG120 column (3.0 × 250 mm, 5 µm, Shiseido, Tokyo, Japan) was used at 25 °C. The mobile phase was composed of water (0.1% trifluoroacetic acid) and acetonitrile (0.1% trifluoroacetic acid) (57:43 (v/v) for J2 and 50:50 (v/v) for NA49, respectively), filtered through a 0.45 μm Millipore filter and degassed prior to use, and the flow rate was 0.5 mL/min. UV detection was performed at 248 nm for J2 and at 246 nm for NA49, and the injection volume was 40 µL for both compounds. […] The accuracy (%) was calculated by dividing the mean of the measured drug concentration by the theoretical drug concentration. […] After extraction, the supernatant was transferred to a clean insert for HPLC analysis.
J2 and NA49 were dissolved in 10% DMAc and 10% Tween® 80 solution in saline to a concentration of 2.5 mg/mL for pharmacokinetic studies. The common carotid artery of the rat was catheterized under anesthesia using isoflurane the day before administration of J2 and NA49 [27]. Rats were divided into four groups. J2 and NA49 were administered to rats by intravenous (IV) injection at doses of 2 mg/kg and 10 mg/kg, respectively. Blood samples (0.2~0.25 mL) were collected at 0, 0.033, 0.083, 0.167, 0.33, 0.67, 1, 2, 3, 5, 7, 9, and 24 h following IV administration. The plasma samples obtained after centrifugation of the blood samples were stored at −20°C until HPLC analysis. The following pharmacokinetic parameters of J2 and NA49 were estimated by non-compartmental analysis using WinNonlin® Professional version 5.2 software (Pharsight Corporation, Mountain View, CA, USA): Initial drug concentration (C0), area under the plasma concentration–time curve from 0 h to the final sampling time point (AUC0-last), elimination half-life (t1/2), apparent volume of distribution (Vd), and total clearance (Cl).

The next series concerns T1, HSP27.
T1 construct: endogenous in cells; host or cells: NCI-H460
Put plainly: HSP27 cross-linking in NCI-H460 cells (Western blot). Format: cell-based, human. To be noted: 0-20 μM, 24 h. On the procedure:
For polyacrylamide gel electrophoresis (PAGE) and Western blot (WB) analysis, cells were lysed with radioimmunoprecipitation assay (RIPA) buffer (50 mM Tris-HCl [pH 7.5], 150 mM NaCl, 1% NP-40, 0.1% sodium dodecyl sulfate (SDS), and 1% sodium deoxycholate) supplemented with 1 mM Na3VO4, 1 mM dithiothreitol (DTT), 1 mM phenyl-methyl-sulfonyl fluoride (PMSF), and protease inhibitor cocktail (Calbiochem). The samples were boiled for 5 min, and equal amounts of protein were analyzed by SDS-PAGE. […]
( B) NCI-H460 cells were tr eated with J2 or NA49 (0, 1, 5, 10 and 20 μM) for 24 h, and cell lysates were
detected by Western blot analysis. […]
Background: A western blot detects proteins with antibodies after separation by electrophoresis.

For a further series, the system named is hERG K+ channel. Put plainly: hERG K+ channel binding assay (fluorescence polarization, red fluorescent tracer). To be noted: human, probe red fluorescent hERG channel ligand tracer; concentration treated 10 μM. Here is the method: To perform the Ames test of J2 and NA49, the number of revertant colonies was counted on each compound-treated plate at the maximum concentration at which the compound was soluble and nontoxic to the S. typhimurium tester strains (Supplementary Material S1). The ratio of the number of revertant colonies in the treated plate to colonies in the vehicle plate. […] For the hERG K^+ channel binding assay of J2 and NA49, the inhibitory activity against the hERG K^+ channel and its ligand was measured using a red fluorescent hERG channel ligand tracer. The final activity was assessed as a decrease in the degree of fluorescence polarization. […]
For hERG K+ channel binding […]
assay, measuring the inhibitory activity against the hERG K+ channel and its ligand using red fluorescent hERG channel ligand tracer. Final activity was assessed by the decrease in fluorescence polarization degree.
On the technique in general: The hERG channel carries a current that helps repolarise heart muscle cells.

Series [6] relates to HFL-1: human embryonic lung cell line. Put plainly: Cytotoxicity in normal mammalian cells (HFL-1). To be noted: HFL1, HFL-1, 24 h, 0.01-100 μM, read-out: IC50 of compounds in various normal mammalian cells. Format: cell-based.
For the next series, the target named is CYP450 3A4 (Homo sapiens, UniProt P08684). Put plainly: CYP450 enzyme inhibition, 3A4.
Series [7] in a line: Liver microsomal phase I stability assay (human). Type of series: in vitro ADME. To be noted: human liver microsomes.
Series [8] deals with VERO: African green monkey kidney cell line. Put plainly: Cytotoxicity in normal mammalian cells (VERO). To be noted: Chlorocebus sabaeus, 24 h, 0.01-100 μM, read-out: IC50 of compounds in various normal mammalian cells. Type of series: cell-based.

SMILES strings stand for the structures. A value given as a limit tells only on which side of the number the result lay.

Chain of CYP450 3A4 (P08684 whole entry): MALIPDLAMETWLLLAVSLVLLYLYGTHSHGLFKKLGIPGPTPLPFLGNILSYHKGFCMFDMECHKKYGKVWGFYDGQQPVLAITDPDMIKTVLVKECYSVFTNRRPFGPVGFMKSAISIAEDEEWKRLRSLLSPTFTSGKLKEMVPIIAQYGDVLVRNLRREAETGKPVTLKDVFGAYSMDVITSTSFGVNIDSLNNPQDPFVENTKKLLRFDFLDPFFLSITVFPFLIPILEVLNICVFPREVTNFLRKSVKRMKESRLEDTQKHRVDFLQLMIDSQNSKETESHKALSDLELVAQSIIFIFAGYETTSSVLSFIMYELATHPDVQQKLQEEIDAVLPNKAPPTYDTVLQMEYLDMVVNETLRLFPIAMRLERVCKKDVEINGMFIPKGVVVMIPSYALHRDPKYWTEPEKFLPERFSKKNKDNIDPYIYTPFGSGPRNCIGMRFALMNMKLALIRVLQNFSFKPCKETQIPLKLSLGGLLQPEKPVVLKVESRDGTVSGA
Chain of CYP450 2C19 (P33261 whole entry): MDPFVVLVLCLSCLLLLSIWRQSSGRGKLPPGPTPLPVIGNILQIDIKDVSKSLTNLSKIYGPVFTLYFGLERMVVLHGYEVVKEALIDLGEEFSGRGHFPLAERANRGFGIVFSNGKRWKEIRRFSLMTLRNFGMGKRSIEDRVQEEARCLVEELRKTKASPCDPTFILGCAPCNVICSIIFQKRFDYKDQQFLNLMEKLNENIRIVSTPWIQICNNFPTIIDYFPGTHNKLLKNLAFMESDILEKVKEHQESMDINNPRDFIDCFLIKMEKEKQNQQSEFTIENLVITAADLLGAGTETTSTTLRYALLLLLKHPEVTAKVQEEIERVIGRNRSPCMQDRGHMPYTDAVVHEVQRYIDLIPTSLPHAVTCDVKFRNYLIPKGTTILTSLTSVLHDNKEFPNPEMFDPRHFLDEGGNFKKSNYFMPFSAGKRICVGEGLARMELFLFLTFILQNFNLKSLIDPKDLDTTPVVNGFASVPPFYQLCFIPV
Method for CYP450 2C19: Permeability was evaluated with a parallel artificial membrane permeability (PAMPA) assay using an artificially generated lipid-infused membrane.

One may read the IC50 as the point on the concentration scale where inhibition reaches its midpoint. One may read the AUC(0-t) as exposure summed from dosing to a finite time, without extrapolation to infinity. What is called Vd is a proportionality between amount in the body and measured concentration, not a real space. What is called clearance is the rate of elimination divided by the concentration. For orientation: half-life means how long it takes for the measured level to halve. Usually inhibition stands for the share of the control response that was lost under treatment. As for `Cc1cc(=O)c2c(O)cc(OCC3CS3)cc2o1` (centres unmarked) [J2], the IC50 in series [1] was greater than 100 µM; at CYP450 2C19 it was greater than 50 µM; in series [2] it was greater than 100 µM; in the series with normal mammalian cells, no less than 91.8 µM; in series [6] it was greater than 100 µM; on CYP450 3A4, greater than 50 µM. The concentration for half-maximal inhibition (IC50) in series [8] was determined as 91.8 µM. Further, the “In vitro Metabolic Stability (% of remaining after 30 min)” value is reported as 6.2 ± 2.55% in series [3], 2.6 ± 0.45% in [4] and 47.8 ± 4.50% in series [7]. The AUC(0-t) in [5] (2 mg/kg) came out at 180 ± 50 ng·h/mL; in [5] (10 mg/kg), 1480 ± 750 ng·h/mL. Also, the figures for the C0 in series [5] (2 mg/kg) and in [5] (10 mg/kg) were 1640 ± 730 ng/mL and 6960 ± 2600 ng/mL, respectively. The Vd in series [5] (2 mg/kg) was determined as 0.77 ± 0.27 L; in series [5] (10 mg/kg) it was 1.05 ± 0.72 L. Also, the clearance in series [5] (2 mg/kg) was 46.5 mL/min; in series [5] (10 mg/kg), 31.7 mL/min. The results for the half-life in [5] (2 mg/kg) and in series [5] (10 mg/kg) were 11.4 ± 4.2 min and 27 ± 18 min, respectively. In addition, the “HSP27 cross-linking activity (altered dimerization)” value in the series with HSP27 is “altered dimerization was detected”. For the same compound, the inhibition at 10 μM in the series with hERG K+ channel worked out at 8.7 ± 2.22%.

Regarding `COc1ccc(-c2coc3cc(OCC4CS4)ccc3c2=O)c(OC)c1` (centres unmarked) [NA49], the IC50 was 91.9 µM in series [1]; greater than 50 µM on CYP450 2C19; 96.5 µM in series [2]; 83.6 to 96.5 µM in the series on normal mammalian cells; 94.5 µM in series [6]; greater than 50 µM against CYP450 3A4. In [8], the IC50 stood at 83.6 µM. The “In vitro Metabolic Stability (% of remaining after 30 min)” value in series [3] was 2.4 ± 0.95%; in series [4], 5.0 ± 1.33%; in series [7] it was 24.9 ± 0.77%. Besides, the AUC(0-t) in [5] (2 mg/kg) is 210 ± 70 ng·h/mL; in [5] (10 mg/kg) it was 1240 ± 590 ng·h/mL. The values for the C0 in [5] (2 mg/kg) and in series [5] (10 mg/kg) were 720 ± 400 ng/mL and 4960 ± 1120 ng/mL, respectively. Further, the Vd came out at 3.35 ± 1.69 L in [5] (2 mg/kg) and 4.13 ± 1.87 L in series [5] (10 mg/kg). The figures for the clearance in series [5] (2 mg/kg) and in [5] (10 mg/kg) were 30.7 mL/min and 30 mL/min, respectively. Besides, the half-life in series [5] (2 mg/kg) is 84 ± 50.4 min; in series [5] (10 mg/kg), 93 ± 28.8 min. Also, the “HSP27 cross-linking activity (altered dimerization)” value with HSP27 is “slightly less than J2”. In the series with hERG K+ channel, this compound registered an inhibition at 10 μM of 39 ± 3.9%.
